Among the data in article PMC2222994 (The Journal of General Physiology, 1999) are IC50 values, retold here.

For the assay, the target named is T1, CNG channel (bovine retinal rod cGMP-gated channel alpha subunit) (Bos taurus, UniProt Q00194).
T1 sequence (Q00194 1-690): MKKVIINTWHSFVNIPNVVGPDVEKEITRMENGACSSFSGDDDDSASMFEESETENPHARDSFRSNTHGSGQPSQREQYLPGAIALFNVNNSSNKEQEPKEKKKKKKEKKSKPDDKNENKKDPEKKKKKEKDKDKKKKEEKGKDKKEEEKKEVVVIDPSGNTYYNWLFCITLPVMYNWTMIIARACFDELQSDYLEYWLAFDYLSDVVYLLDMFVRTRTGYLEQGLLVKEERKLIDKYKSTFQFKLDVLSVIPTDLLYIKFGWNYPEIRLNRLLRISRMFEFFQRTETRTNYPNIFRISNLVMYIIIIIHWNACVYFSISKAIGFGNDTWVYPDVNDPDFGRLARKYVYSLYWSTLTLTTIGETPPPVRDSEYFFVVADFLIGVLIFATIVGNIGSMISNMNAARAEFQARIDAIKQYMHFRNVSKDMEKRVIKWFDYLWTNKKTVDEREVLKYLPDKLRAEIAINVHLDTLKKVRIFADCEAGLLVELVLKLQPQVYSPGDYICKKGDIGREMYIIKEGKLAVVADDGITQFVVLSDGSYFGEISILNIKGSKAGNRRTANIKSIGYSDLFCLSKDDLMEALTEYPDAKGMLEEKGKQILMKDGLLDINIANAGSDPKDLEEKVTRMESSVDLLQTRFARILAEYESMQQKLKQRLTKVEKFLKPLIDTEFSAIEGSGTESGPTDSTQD
Nature of the assay: outside-out patch clamp, macroscopic current block. Type of assay: cell-based.
`NCCCCN` [putrescine]: the IC50 – broadly, the concentration needed to halve the response being measured – came to 1400 µM. `NCCCCNCCCN` [spermidine] returned an IC50 of 50 µM. Consider `NCCCNCCCCNCCCN` [spermine], for which the IC50 stood at 3.1 µM.
